Patent publication US4035386A, “Propynylamine-substituted dibenzo[b,f]thiepins and dibenz[b,f]oxepins” (Hoffmann-La Roche Inc., priority 1976, dated 1977)

How the values were obtained:
in vivo = settings: rats, intraperitoneal; for ED50 at 6 h: rat, in vivo, ip, observed every 30 minutes over a 6-hour period, cataleptic = homolateral extremities crossed at least 10 seconds, read-out: ED50 (dose at which 50% of the animals are cataleptic); for cataleptic effect (in words): in comparison to chlorpromazine
Procedure: The following compounds were tested:
The foregoing compounds were compared to chlorpromazine, a well-known central depressant, especially well-known as a neuroleptic agent. The test animals are considered to be cataleptic when the homolateral extremities remain in the crossed position for at least 10 seconds. The number of cataleptic animals is recorded every 30 minutes over a 6-hour period.

[1] = test system: homovanillinic acid (HVA); experiment: Determination of homovanillinic acid (HVA) in brains of treated rats; dopamine turnover in the basal ganglions; format: in vivo; settings: for Increase of HVA, %: two hours before killing, untreated rats set at 100%; for activity in HVA test compared with chlorpromazine (in words): p.o., in comparison to chlorpromazine
Procedure: I. determination of Homovanillinic Acid
Two hours prior to being killed, rats are injected with the test substance.
Thereafter, the homovanillinic acid is extracted from the supernatent portion of a homogenized mixture of brains of the treated rats into butylacetate and later into an aqueous solution and is oxidized with potassium ferric cyanide to a fluorescent […]. […] The homovanillinic titer in untreated rats is arbitrarily set at 100%.

Compound: CN(C)CCCN1c2ccccc2Sc2ccc(Cl)cc21 [Chlorpromazine, reference compound]
- ED50 at 6 h (in vivo): 6 mg/kg
- cataleptic effect (in words) (in vivo): does demonstrate cataleptic effects
- Increase of HVA, % ([1]; 20 mg/kg p.o.): 321%

Compound: CSc1ccc2c(c1)C(C#CCN(C)C)=Cc1ccccc1S2.O=C(O)/C=C\C(=O)O [Product A, N,N-dimethyl-3-[8-(methylthio)-dibenzo[b,f]thiepin-10-yl]-2-propynylamine maleate]
- ED50 at 6 h (in vivo): > 100 mg/kg
- cataleptic effect (in words) (in vivo): no or, respectively, very weak cataleptic effect
- Increase of HVA, % ([1]; 50 mg/kg p.o.): 330%
- activity in HVA test compared with chlorpromazine (in words) [1]: as strong an activity as chlorpromazine

Compound: CN(C)CC#CC1=Cc2ccccc2Sc2ccc(Cl)cc21.O=C(O)/C=C\C(=O)O [Product B, N,N-dimethyl-3-(8-chloro-dibenzo[b,f]thiepin-10-yl)-2-propynylamine maleate]
- ED50 at 6 h (in vivo): 100 mg/kg
- cataleptic effect (in words) (in vivo): no or, respectively, very weak cataleptic effect
- Increase of HVA, % ([1]; 50 mg/kg p.o.): 370%
- activity in HVA test compared with chlorpromazine (in words) [1]: as strong an activity as chlorpromazine

Compound: COc1ccc2c(c1)Sc1ccc(Cl)cc1C(C#CCN(C)C)=C2.CS(=O)(=O)O [Product C, N,N-dimethyl-3-(8-chloro-3-methoxydibenzo[b,f]thiepin-10-yl)-2-propynylamine methanesulfonate]
- ED50 at 6 h (in vivo): > 100 mg/kg
- cataleptic effect (in words) (in vivo): no or, respectively, very weak cataleptic effect
- Increase of HVA, % ([1]; 30 mg/kg p.o.): 320%
- activity in HVA test compared with chlorpromazine (in words) [1]: as strong an activity as chlorpromazine
